From US4738971A, “N-aryl-1,2-dihydro-4-substituted-1-alkyl-2-oxo-quinoline-3-carboxamides” (priority 1981, dated 1988)

Legend:
[1] = tested on: delayed hypersensitivity reaction (pertussis vaccine pleurisy); assay: pertussis vaccine pleurisy test in rats; format: in vivo, rat (male Sprague-Dawley); details: 10 mg/kg p.o.
Description: A useful test for the evaluation of the effect of chemical compounds on the immune system is the pertussis vaccine pleurisy test in rats. Compounds which enhance the response in this delayed hypersensitivity reaction are considered to stimulate cell-mediated immunity (4).
This example illustrates the effect of the compounds of the general formula I in the pertussis vaccine pleurisy test.
Pertussis vaccine pleurisy is a useful test for the evaluation of the effect of chemical compounds on the immune system. Compounds which enhance the response in this delayed hypersensitivity reaction are considered to stimulate cell-mediated immunity.
A modification of a method described in (4) was used. Male Sprague-Dawley rats weighing 250-275 g were used. At least ten animals were used in each group.
Equal volumes of Freund's incomplete adjuvant and a suspension of heat killed Bordetella pertussis organisms were mixed. To sensitize animals, day 0, 0.2 ml of a mixture containing 0.036×10^10 organisms/ml was injected into the dorsal surface of one hind paw and one forepaw.
The animals were challenged on day 12 with 0.1 ml of a mixture containing 0.25×10^10 organisms/ml that was injected intrapleurally. 48 hours after challenge, day 14, the volume of the exudate in the pleural cavity was measured.
The substances suspended in aqueous methocel solution 10 ml/kg were given intragastrically once daily from day 10 to day 13. The control groups were given methocel solution 10 ml/kg.
The effect of the substances was assessed by the exudate volume expressed in percent after comparison with the control groups.

[2] = tested on: carrageenan-induced edema; assay: carrageenan edema test in rats; format: in vivo, rat (female Sprague-Dawley); details: dose within the range 10-160 mg/kg p.o.
Description: Another test, in which the effect of a drug corresponds to the effects obtained in the tests mentioned above, and which can therefore also be used, is the well-established carrageenan edema test in rats (5). Comparative evaluation of compounds of the present invention in the three tests mentioned has shown that compounds which increase the extent of the delayed hypersensitivity reaction in the pertussis vaccine pleurisy test and in the adjuvant arthritis test also increase the extent of carrageenan-induced edema in the carrageenan edema test, thus providing a further tool for the determination of enhancement of cell-mediated immunity.
This example illustrates the effect of the compounds of the general formula I in the carrageenan edema test in rats.
A modification of a method described in (5) was used. Female Sprague-Dawleyrats weighing 110-120 g was used. At least 10 animals were used in each experimental group. Foot edema was induced by injecting carrageenan in 0.9% NaCl into the plantar surface of the right hind paw of the rats.
The substances suspended in aqueous methocel solution 10 ml/kg were administered intragastrically 30 minutes before the injection of carrageenan. The control groups were given methocel solution 10 ml/kg.
Three hours after carrageenan injection the animals were killed. The hind feet were cut off and weighed. The difference in weight of the injected right paw and the uninjected left paw was called edema weight.
The effect of the substances was assessed by the edema weight expressed in percent after comparison with the control groups.

[3] = tested on: delayed hypersensitivity reaction (adjuvant arthritis, Mycobacterium butyricum); assay: adjuvant arthritis test in rats; format: in vivo, rat (male Lister hooded); details: 40 mg/kg p.o.
Description: (§1) The adjuvant arthritis test in rats produces a measureable extent of a delayed hypersensitivity reaction and can be used for a determination of variations in the extent of the delayed hypersensitivity reaction upon drug administration to the host. An increase in the extent of the delayed hypersensitivity reaction upon drug administration consequently indicates enhanced cell-mediated immunity in the host.
This example illustrates the effect of the compounds of the general formula I in the adjuvant arthritis test in rats.
as §1, with “produces” for “produces a measureable extent of”, “variations” for “variations in the extent”
A modification of a method described in (12) was used. Male Lister hooded rats weighing 250-275 g were used. At least 9 animals were used in each experimental group.
A single intradermal injection of 0.5 mg/0.1 ml heat killed Mycobacterium butyricum suspended in sterile liquid paraffinum was given into the right hind foot of all rats. After this injection, day 0, the volume of the left hind paw, measured by water displacement, was followed to the end of the experiment.
The substances suspended in aqueous methocel solution 10 ml/kg were given intragastrically. The control group was given methocel solution 10 ml/kg. The different groups of animals were thus treated once daily from day -4 to day 14. The effect of the substances was assessed by the left foot volume expressed in percent after comparison with the control groups.

SMILES | significant enhancing effect in the pertussis vaccine pleurisy test [1] | significant potentiation of the carrageenan edema [2] | change in vivo at 10 mg/kg ([1]; Rattus norvegicus, po, 48 h, once daily day 10 to day 13, vs control, preliminary, read-out: Enhancement of the delayed hypersensitivity reaction assessed by the exudate vol.) [%] | significant potentiating effect in the adjuvant arthritis test [3]
CN(C(=O)c1c(O)c2c(F)cccc2n(C)c1=O)c1ccccc1 [20:16, N-methyl-N-phenyl-1,2-dihydro-5-fluoro-4-hydroxy-1-methyl-2-oxo-quinoline-3-carboxamide] | significant enhancing effect | potentiate significantly | – | –
CN(C(=O)c1c(O)c2ccccc2n(C)c1=O)c1ccc2c(c1)OCO2 [20:29, N-methyl-N-(3,4-methylenedioxyphenyl)-1,2-dihydro-4-hydroxy-1-methyl-2-oxo-quinoline-3-carboxamide] | significant enhancing effect | potentiate significantly | – | –
COc1ccc(-n2c(=O)c(C(=O)N(C)c3ccccc3)c(O)c3ccccc32)cc1 [20:34, N-methyl-N-phenyl-1-(4-methoxyphenyl)-1,2-dihydro-4-hydroxy-2-oxo-quinoline-3-carboxamide] | significant enhancing effect | potentiate significantly | – | –
CC(=O)Nc1ccc(N(C)C(=O)c2c(O)c3ccccc3n(C)c2=O)cc1 [20:35, N-(4-acetylaminophenyl)-N-methyl-1,2-dihydro-4-hydroxy-1-methyl-2-oxo-quinoline-3-carboxamide] | significant enhancing effect | potentiate significantly | – | –
C=CCn1c(=O)c(C(=O)N(C)c2ccc(N(C)C)cc2)c(O)c2ccccc21 [20:39, N-(4-dimethylaminophenyl)-N-methyl-1-allyl-1,2-dihydro-4-hydroxy-2-oxo-quinoline-3-carboxamide] | significant enhancing effect | potentiate significantly | – | –
CN(C(=O)c1c(O)c2cccc3c2n(c1=O)CC3)c1ccccc1 [21:3, N-methyl-N-phenyl-1,2-dihydro-1,8-ethylene-4-hydroxy-2-oxo-quinoline-3-carboxamide] | significant enhancing effect | potentiate significantly | – | –
CCCCN(C(=O)c1c(O)c2ccccc2n(C)c1=O)c1ccccc1 [21:8, N-(n-butyl)-N-phenyl-1,2-dihydro-4-hydroxy-1-methyl-2-oxo-quinoline-3-carboxamide] | significant enhancing effect | potentiate significantly | – | –
CN(C)c1ccc(N(C)C(=O)c2c(O)c3ccccc3n(C)c2=O)cc1 [21:10, N-(4-dimethylaminophenyl)-N-methyl-1,2-dihydro-4-hydroxy-1-methyl-2-oxo-quinoline-3-carboxamide] | significant enhancing effect | potentiate significantly | – | –
CN(C(=O)c1c(O)c2ccccc2n(C)c1=O)c1ccc(O)cc1 [21:11, N-(4-hydroxyphenyl)-N-methyl-1,2-dihydro-4-hydroxy-1-methyl-2-oxo-quinoline-3-carboxamide] | – | – | 34 | significant potentiating effect
C=CCN(C(=O)c1c(O)c2ccccc2n(C)c1=O)c1ccccc1 [21:12, N-allyl-N-phenyl-1,2-dihydro-4-hydroxy-1-methyl-2-oxo-quinoline-3-carboxamide] | significant enhancing effect | potentiate significantly | – | –
CCN(C(=O)c1c(OC)c2c(F)cccc2n(C)c1=O)c1ccc(OC)c(OC)c1 [21:16, N-(3,4-dimethoxyphenyl)-N-ethyl-1,2-dihydro-5-fluoro-4-methoxy-1-methyl-2-oxo-quinoline-3-carboxamide] | significant enhancing effect | potentiate significantly | – | –
COc1cccc(N(C)C(=O)c2c(O)c3cc(C)ccc3n(C(C)C)c2=O)c1 [21:17, N-(3-methoxyphenyl)-N-methyl-1,2-dihydro-4-hydroxy-1-isopropyl-6-methyl-2-oxo-quinoline-3-carboxamide] | significant enhancing effect | – | – | significant potentiating effect
CN(C(=O)c1c(O)c2ccccc2n(-c2ccc(F)cc2)c1=O)c1ccc(N2CCCC2)cc1 [21:19, N-methyl-N-(4-pyrrolidinophenyl)-1-(4-fluorophenyl)-1,2-dihydro-4-hydroxy-2-oxo-quinoline-3-carboxamide] | – | – | – | significant potentiating effect
CN(C(=O)c1c(O)c2cccc3c2n(c1=O)CC3)c1cnccn1 [21:20, N-methyl-N-pyrazinyl-1,2-dihydro-1,8-ethylene-4-hydroxy-2-oxo-quinoline-3-carboxamide] | significant enhancing effect | potentiate significantly | – | –
CN(C(=O)c1c(O)c2ccccc2n(C)c1=O)c1nccs1 [21:21, N-methyl-N-2-thiazolyl-1,2-dihydro-4-hydroxy-1-methyl-2-oxo-quinoline-3-carboxamide] | significant enhancing effect | potentiate significantly | – | –
CN(C(=O)c1c(O)c2ccccc2n(C)c1=O)c1cnccn1 [21:23, N-methyl-N-pyrazinyl-1,2-dihydro-4-hydroxy-1-methyl-2-oxo-quinoline-3-carboxamide] | significant enhancing effect | – | – | significant potentiating effect
Cc1cc(N(C)C(=O)c2c(O)c3cc(Cl)ccc3n(C)c2=O)sn1 [21:24, N-methyl-N-(3-methyl-5-isothiazolyl)-6-chloro-1,2-dihydro-4-hydroxy-1-methyl-2-oxo-quinoline-3-carboxamide] | significant enhancing effect | – | – | significant potentiating effect
CCN(C(=O)c1c(O)c2cc(N(C)C)ccc2n(C)c1=O)c1ccccn1 [21:26, N-ethyl-N-2-pyridyl-1,2-dihydro-6-dimethylamino-4-hydroxy-1-methyl-2-oxo-quinoline-3-carboxamide] | significant enhancing effect | – | – | significant potentiating effect
COc1ccc(N(C)C(=O)c2c(O)c3cccc4c3n(c2=O)CC4)cc1 [21:28, N-(4-methoxyphenyl)-N-methyl-1,2-dihydro-1,8-ethylene-4-hydroxy-2-oxo-quinoline-3-carboxamide] | significant enhancing effect | – | – | significant potentiating effect
CN(C)c1ccc(N(C)C(=O)c2c(O)c3cccc4c3n(c2=O)CC4)cc1 [21:30, N-(4-dimethylaminophenyl)-N-methyl-1,2-dihydro-1,8-ethylene-4-hydroxy-2-oxo-quinoline-3-carboxamide] | significant enhancing effect | – | – | significant potentiating effect
